According to ChEMBL document CHEMBL5441142, “Probing the Merck KGaA Open Global health library for novel starting points for anti-schistosomal drug discovery” (2024):
Active and inactive are the calls of the source. How the calls were made is not given here.

Tested on: Schistosoma mansoni
Experiment: In vitro activity screen on S. mansoni schistosomula at 10 uM. Compound-induced effects were assessed by quantifying larva motility and phenotype using Roboworm.
Assay type: functional, organism-based
Design: test concentration 10 uM, temperature 37 degree C, time incubation 72 h
Details: Puerto Rican

COc1cc(SC(C)C#N)ccc1-c1nc2ccncc2[nH]1 (configuration not stated)
In vitro activity: inactive

COc1cc(OC)c(CCNC(=O)c2cn3cc(-c4cc(OCC(O)CO)ccc4OC)nc3s2)c(OC)c1 (configuration not stated)
In vitro activity: inactive

COc1ccc(OC)c(Nc2nc3ccccc3nc2NS(=O)(=O)Cc2cccnc2)c1
In vitro activity: inactive

CCCc1nn(C)c2c(=O)[nH]c(-c3cc(S(=O)(=O)Oc4cccnc4C)ccc3OCC)nc12
In vitro activity: inactive

O=C(O)C1CCN(c2nc(NCc3ccc4c(c3)OCO4)c3c4c(sc3n2)CCCC4)CC1
In vitro activity: inactive

O=C(O)CN1C(=O)[C@@]2(NC(=O)N(Cc3cc(Cl)ccc3F)C2=O)c2cc(Cl)ccc21
In vitro activity: inactive

O=C(O)c1ccc(-c2nc(NCc3ccc4c(c3)OCO4)c3cc(Cl)sc3n2)cc1
In vitro activity: inactive

COc1cc(OC)c(CCNC(=O)c2ccc3nc(-c4cc(OC)ccc4OC)cn3c2)c(OC)c1
In vitro activity: inactive

CC1=C(C(=O)N2CCc3ncc(C(F)(F)F)cc3C2)C2(CCN(C3CCc4ccccc43)CC2)OC1=O (configuration not stated)
In vitro activity: inactive

CC(/C=C/c1cc(/C=C/C(C)=C/C(=O)O)cc(-c2ccc(C(F)(F)F)cc2)c1)=C\C(=O)O
In vitro activity: inactive

COCc1cc(-c2nc(-c3cc(F)cc(CN(C)CC(=O)O)c3)no2)ccc1-c1cccc(F)c1C
In vitro activity: inactive

COc1ccc(OC)c(CCNC(=O)c2cn3cc(-c4cc(OC)ccc4OC)nc3s2)c1
In vitro activity: inactive

CCCc1nn(C)c2c(=O)[nH]c(-c3cc(S(=O)(=O)Oc4cccnc4)ccc3OCC)nc12
In vitro activity: inactive

O=C(Nc1ccc(Oc2ccncc2)cc1)Nc1cc(C(F)(F)F)ccc1-n1cncn1
In vitro activity: inactive

Cc1ccc(CNc2nc(N3CCC(C(=O)O)CC3)nc3sc4c(c23)CCCC4)cc1
In vitro activity: inactive

Cc1cc2c(NCc3ccc4c(c3)OCO4)nc(-c3ccc(C(=O)O)cc3)nc2s1
In vitro activity: inactive

C=CCSc1ccc(-c2nc3ccncc3[nH]2)c(OC)c1
In vitro activity: inactive

CC1=C(C(=O)N2CCc3ncc(C(F)(F)F)cc3C2)C2(CCN([C@H]3CC[C@@H](O)CC3)CC2)OC1=O
In vitro activity: inactive

O=C(O)[C@H]1CC[C@H](c2nc(NCc3ccc4c(c3)OCO4)c3c4c(sc3n2)CCCC4)CC1
In vitro activity: inactive

COCc1cc(-c2nc(-c3ccc(CN(C)CCC(=O)O)cc3)no2)ccc1-c1ccccc1C
In vitro activity: inactive

CCC(C)[S+]([O-])c1ccc(-c2nc3ccncc3[nH]2)c(OC)c1 (configuration not stated)
In vitro activity: inactive

Cc1sc2nc(N3CCC(C(=O)O)CC3)nc(NCc3ccc4c(c3)OCO4)c2c1Cl
In vitro activity: inactive

CC1=C(C(=O)N2CCc3ncc(C(F)(F)F)cc3C2)C2(CCN(CC3CCOC3)CC2)OC1=O (configuration not stated)
In vitro activity: inactive

CC1=C(C(=O)N2CCc3c(F)cc(C(F)(F)F)cc3C2)C2(CCN(C3CCOCC3)CC2)OC1=O
In vitro activity: inactive

COc1cc(OC)c(CCNC(=O)c2cn3cc(-c4cc(OCC(N)=O)ccc4OC)nc3s2)c(OC)c1
In vitro activity: inactive

COc1nc(/C=C/c2nc3n(n2)CCCC3c2ccccc2C(F)(F)F)ccc1-n1cnc(C)c1 (configuration not stated)
In vitro activity: inactive

Cn1cc(-c2cnc3[nH]cc(-c4cn(Cc5cccc(F)c5F)nn4)c3c2)cn1
In vitro activity: inactive

CCc1cc2c(NCc3ccc(OC)c(Cl)c3)nc(-c3ccc(C(=O)O)cc3)nc2s1
In vitro activity: inactive

CC(Sc1nc(-c2ccc(Cl)cc2)c(-c2ccc(Cl)cc2)o1)C(=O)NCC(=O)O (configuration not stated)
In vitro activity: inactive

O=C(O)CC1CCN(c2nc(NCc3ccc4c(c3)OCO4)c3c4c(sc3n2)CCCC4)CC1
In vitro activity: inactive

COc1cc(OC)cc(-c2cn3cc(C(=O)NCCc4ccc(OC)cc4OC)ccc3n2)c1
In vitro activity: inactive

COc1ccc(CNc2nc([C@H]3CC[C@H](C(=O)O)CC3)nc3sc4ccccc4c23)cc1Cl
In vitro activity: inactive

Cc1csc(N2CCN(C(C)c3ccc4c(c3)OCO4)CC2)n1 (configuration not stated)
In vitro activity: inactive

c1cnc(N2CCN(Cc3cncc(-c4ccsc4)c3)CC2)nc1
In vitro activity: inactive

CC1(C)Oc2ccc(C#N)cc2[C@@H](n2ccccc2=O)[C@@H]1O
In vitro activity: inactive

CCOc1cc(-c2nc(-c3ccc(CN(C)CC(=O)O)cc3)no2)ccc1-c1ccccc1C
In vitro activity: inactive

CC1SC(=O)NN=C1c1ccc2c(c1)CCCN2 (configuration not stated)
In vitro activity: inactive

Cc1cc(Cl)c(-n2cccc2)cc1C(=O)N=C(N)N
In vitro activity: inactive

O=C(O)c1ccc(C(=O)Nc2[nH]c3ccccc3c2C(=O)NCc2ccc3c(c2)OCO3)cc1
In vitro activity: inactive

CCC(C)Oc1ccc(-c2nc(-c3ccc([C@@H](C)NCC(=O)O)cc3)no2)cc1COC (some centres not stated)
In vitro activity: inactive

CCCCCCN(Cc1ccc(C#Cc2ccc(CCCC)cc2)cc1)C(=O)c1ccc(O)c(C(=O)O)c1
In vitro activity: inactive

COc1cc(C(=O)Nc2cn(Cc3ccc4ccccc4c3)nn2)ccc1-n1cnc(C)c1
In vitro activity: inactive

CCc1cc(C)c(C(=O)N=C(N)N)cc1S(C)(=O)=O
In vitro activity: inactive

CC/N=C(\c1ccc(OC)c(OC)c1)N1CCCc2cc(C3=NNC(=O)SC3C)ccc21 (configuration not stated)
In vitro activity: inactive

CC1=C(C(=O)N2CCc3ccc(C(F)(F)F)cc3C2)C2(CCN(C3CCC(O)CC3)CC2)OC1=O (configuration not stated)
In vitro activity: inactive

O=C(C1CCCCC1)N1CC(=O)N2CCc3ccccc3[C@H]2C1
In vitro activity: inactive

Cc1ccccc1-c1ccc(-c2nc(-c3ccc(CN(C)CCC(=O)O)c(F)c3)no2)cc1OCC1CC1
In vitro activity: inactive

CCC(C)Oc1ccc(-c2nc(-c3cc(F)cc(CN(C)CC(=O)O)c3)no2)cc1COC (configuration not stated)
In vitro activity: inactive

CN(C)c1nc2c(s1)CCc1[nH]c(=O)c(C#N)cc1-2
In vitro activity: inactive

CC1=C(C(=O)N2CCc3ccc(C(F)(F)F)cc3C2)C2(CCN(C3CCCC3)CC2)OC1=O
In vitro activity: inactive

Cc1ccc(-c2ccccc2)cc1C(=O)N=C(N)N
In vitro activity: inactive

COc1ccc(CNc2nc(-c3ccc(C(=O)O)cc3)nc3sc4c(c23)CCCC4)cc1Cl
In vitro activity: inactive

CCOc1cc(CCNC(=O)C[C@H]2S[C@@H](c3ccc(C#Cc4ccccc4)cc3)N(c3cccc(C(N)=O)c3)C2=O)ccc1O
In vitro activity: inactive

O=C(O)c1ccc(-c2nc(NCc3ccc4c(c3)OCO4)c3c4c(oc3n2)CCCC4)cc1
In vitro activity: inactive

CCCc1nn(C)c2c(=O)[nH]c(-c3cc(S(=O)(=O)Oc4ccncc4)ccc3OCC)nc12
In vitro activity: inactive

COc1ccc(C2=NN(C(=O)c3ccc(NC(=O)c4ccncc4)cc3)CCC2)cc1OC1CCCC1
In vitro activity: inactive

COc1cc(NC(=O)c2cn(Cc3ccc(Cl)cc3)nn2)ccc1-n1cnc(C)c1
In vitro activity: inactive

CC1=C(C(=O)N2COc3ccc(C(F)(F)F)cc3C2)C2(CCN(C(C)C)CC2)OC1=O
In vitro activity: inactive

COc1ccc(C(=O)N2CCC(C)(C)c3cc(C4=NNC(=O)SC4C)ccc32)cc1OC (configuration not stated)
In vitro activity: inactive

COc1ccc(OCc2nn[nH]n2)cc1-c1cn2cc(C(=O)NCCc3c(OC)cccc3OC)sc2n1
In vitro activity: inactive

CCCc1nn(C)c2c(=O)[nH]c(-c3cc(S(=O)(=O)Oc4ccc(=O)[nH]n4)ccc3OCC)nc12
In vitro activity: inactive

COc1cc(C(=O)Nc2cn(Cc3ccc(Cl)c(Cl)c3)nn2)ccc1-n1cnc(C)c1
In vitro activity: inactive
